Assays:
[1] = tested on: patients with type 2 diabetes on insulin treatment; assay: Double-blind placebo-controlled clinical trials in diabetic peripheral neuropathy, VAS pain assessment; population on insulin; format: in vivo, human; conditions: even at the higher dose
Method: (§1) Two double-blind placebo-controlled clinical trials, identical in their experimental design, were conducted in patients with diagnoses of diabetic peripheral neuropathy selected according to the criteria established in the San Antonio, Tex. conference (Diabetes 37:1000-1004, 1988).
(§2) Acetyl L-carnitine was administered orally at doses of 1.5 g/day and 3.0 g/day for continuously for 52 weeks.
(§3) One objective of the studies consisted in the possible modification of the Visual Analogue Scale (VAS) (Scott J. Huskisson EC. Graphic representation of pain. Pain 1976;2:175-184) in the subjective assessment of pain symptoms and the main sensorimotor clinical parameters.
The second population comprised patients with type 2 diabetes treated with insulin. Here, too, the population included a placebo group (Group 4) matching up to the same inclusion criteria as the patients treated with acetyl L-carnitine (on insulin treatment).

[2] = tested on: patients with type 2 diabetes not on insulin treatment; assay: Double-blind placebo-controlled clinical trials in diabetic peripheral neuropathy, VAS pain assessment; population not on insulin; format: in vivo, human; conditions: active only at the higher dose (3 g/day)
Method: as §1, §2, §3

[3] = tested on: type I and II diabetics with symmetrical distal polyneuropathy or multineuropathy; conditions: patients treated with acetyl L-carnitine out of 333 recruited; cited from earlier work

## CC(=O)O[C@H](CC(=O)[O-])C[N+](C)(C)C [Acetyl L-carnitine, acetyl L-carnitine]
[1]
  activity compared to the control group: no statistically significant difference in activity
[2]
  activity compared to the placebo group at the end of treatment: active in a dose-related manner
[3]
  patients presenting an improvement in pain symptoms: 39%

Reference: patent publication US20060004095A1, “Use of acetyl L-carnitine for the preparation of a medicine for the treatment of neuropathic pain in diabetic patients” (priority 2004, published 2006)
